Experiments:
[1] = longest among reported nerve-specific fluorophores; cited from earlier work
[2] = system: murine brachial plexus and sciatic nerves; test: In vivo nerve-specificity screening via direct/topical administration; parameters: species or system mice; conditions: 500 μM in co-solvent formulation, 100 μL incubated 5 minutes on exposed nerve, imaged 30 minutes after staining; selected for further systemic screening
Description: Each compound was screened for its tissue-specificity using a previously published direct/topical administration strategy in murine brachial plexus and sciatic nerves.^1 Each compound from the benzo[c]phenoxazine library was formulated in the previously utilized co-solvent formulation (10% DMSO, 5% Kolliphor, 65% serum and 20% phosphate buffered saline) at 500 μM. 100 μL of the formulated Oxazine were incubated on the exposed brachial plexus or sciatic nerve for 5 minutes. The fluorophore containing solution was removed and the area was irrigated with saline 18 times to remove any unbound fluorophore. Co-registered fluorescence and color images were collected of each stained area 30 minutes after benzo[c]phenoxazine direct/topical administration using a custom built macroscopic imaging system with 710/75 nm excitation and 810 nm longpass emission filters. Custom written MatLab code was used to analyze the tissue specific fluorescence where regions of interest were selected on the nerve, muscle, cut muscle and adipose tissue using the white light images. These regions of interest were then analyzed on the co-registered matched fluorescence images permitting assessment of the nerve-to-muscle, nerve-to-cut muscle, and nerve-to-adipose ratios in blinded manner.
(§1) In vivo nerve-specificity screening of the benzo[c]phenoxazine derivative library. Each compound was screened for its tissue-specificity using a direct administration strategy (Barth & Gibbs, Theranostics 7, 573-593 (2017)) where nerve contrast was examined in murine brachial plexus and sciatic nerves. The benzo[c]phenoxazine derivatives were solubilized for in vivo use in the previously described co-solvent formulation (Gibbs-Strauss et al., Molecular imaging 10, 91-101 (2011)). The previously optimized staining procedure was utilized (Gibbs et al., PloS one 8, e73493 (2013)), which is described briefly as follows. The brachial plexus and sciatic nerves were surgically exposed by removal of overlaying adipose and muscle tissues. The benzo[c]phenoxazine compound was formulated at 500 μM in the co-solvent formulation and 100 μL was incubated on the exposed brachial plexus or sciatic nerve for 5 minutes. The fluorophore containing solution was removed and the area was irrigated with saline nine times, followed by a five-minute incubation with blank formulation and then irrigation with saline nine more times to remove any unbound fluorophore. Images were acquired 30 minutes following completion of staining. Unstained nerve sites were used for all control images to quantify autofluorescence. Each benzo[c]phenoxazine derivative was screened in n=3 mice or 6 nerve sites/fluorophore. The quantified tissue fluorescence intensities following direct administration of the fluorophores were used to calculate nerve-to-muscle, nerve-to-cut muscle, and nerve-to-adipose ratios as metrics of nerve contrast. […] Uninjected animals were used for all control images to quantify autofluorescence. Similarly to quantification protocol for the direct administration, the quantified tissue fluorescence intensities following systemic administration of the fluorophores were used to calculate nerve-to-muscle and nerve-to-adipose ratios as metrics of nerve contrast. […]
Intraoperative fluorescence imaging systems. A custom-built small animal imaging system capable of real-time color and fluorescence imaging was used to acquire in vivo rodent images (Hackman et al., Molecular pharmaceutics (2015)). […]

[3] = system: murine brachial plexus and sciatic nerves; test: In vivo nerve-specificity screening via systemic administration; parameters: species or system mice; conditions: 500 nmol intravenously in co-solvent formulation; sacrificed at 0.5 h, 1 h, 2 h, 4 h
Description: Each compound was screened for its tissue-specificity using a previously published systemic administration strategy in murine brachial plexus and sciatic nerves.^1 Each compound from the benzo[c]phenoxazine library was formulated in the previously utilized co-solvent formulation (10% DMSO, 5% Kolliphor, 65% serum and 20% phosphate buffered saline) at 2.5 mM. 200 μL of the formulated fluorophore was administered intravenously before exposing the brachial plexus and sciatic nerves. Co-registered fluorescence and color images were collected of each nerve site using a custom built macroscopic imaging system with 710/75 nm excitation and 810 nm longpass emission filters. Custom written MatLab code was used to analyze the tissue specific fluorescence where regions of interest were selected on the nerve, muscle and adipose tissue using the white light images. These regions of interest were then analyzed on the co-registered matched fluorescence images permitting assessment of the nerve to muscle and nerve to adipose ratios in blinded manner.
as §1, with “The brachial plexus and sciatic nerves were surgically exposed by removal of overlaying adipose and muscle tissues. The benzo[c]phenoxazine compound was formulated at 500 μM in the co-solvent formulation and 100 μL was incubated on the exposed brachial plexus or sciatic nerve for 5 minutes. The fluorophore containing solution was removed and the area was irrigated with saline nine times, followed by a five-minute incubation with blank formulation and then irrigation with saline nine more times to remove any unbound fluorophore. Images were acquired 30 minutes following completion of staining.” left out, “Each benzo[c]phenoxazine derivative was screened in n=3 mice or 6 nerve sites/fluorophore.” left out
Intraoperative fluorescence imaging systems. A custom-built small animal imaging system capable of real-time color and fluorescence imaging was used to acquire in vivo rodent images (Hackman et al., Molecular pharmaceutics (2015)). Briefly, the imaging system consisted of a QImaging EXi Blue monochrome camera (Surrey, British Columbia, CA) for fluorescence detection with a removable Bayer filter for collection of co-registered color and fluorescence images. […]

| Structure (SMILES) | emission wavelength maximum [1] [nm] | outcome of nerve-specificity screening (nerve-to-muscle, nerve-to-cut muscle, nerve-to-adipose ratios) following direct administration [2] | outcome of nerve-specificity screening (nerve-to-muscle, nerve-to-adipose ratios) following systemic administration [3] |
| --- | --- | --- | --- |
| CC/N=c1/cc2oc3cc(NCC)c(C)cc3nc-2cc1C [Oxazine 4] | 635 |  |  |
| CC/N=c1\ccc2nc3ccc4cc(N(CC)CC)ccc4c3oc-2c1C [LGW08-35, (E)-N-(3-(diethylamino)-11-methyl-10H-benzo[c]phenoxazin-10-ylidene)ethanaminium] |  | lead candidates | selected as lead benzo[c]phenoxazine nerve-specific fluorophores |
| CC/N=c1/cc2oc3c(ccc4cc(N(CC)CC)ccc43)nc-2c(C)c1 [LGW08-46, (E)-N-(3-(diethylamino)-8-methyl-10H-benzo[c]phenoxazin-10-ylidene)ethanaminium] |  | lead candidates | selected as lead benzo[c]phenoxazine nerve-specific fluorophores |
| CCN(CC)c1ccc2c(ccc3nc4ccc(=[N+](C)C)cc-4oc32)c1 [LGW07-92, N-(3-(diethylamino)-10H-benzo[c]phenoxazin-10-ylidene)-N-methylmethanaminium] |  | lead candidates |  |
| CC/N=c1/cc2oc3c(ccc4cc(N(CC)CC)ccc43)nc-2cc1C [LGW 05-25, (Z)—N-(3-(diethylamino)-9-methyl-10H-benzo[c]phenoxazin-10-ylidene)ethanaminium] |  | lead candidates | selected as lead benzo[c]phenoxazine nerve-specific fluorophores |
| CCN(CC)c1ccc2c3c(ccc2c1)N=c1cc2c(cc1O3)=NCCC2 [LGW07-14, 3-(diethylamino)-10,11-dihydro-9H-benzo[h]pyrido[3,2-b]phenoxazin-12-ium] |  | lead candidates | selected as lead benzo[c]phenoxazine nerve-specific fluorophores |

Reference: patent US12030893B2, “Near-infrared nerve-sparing benzo[c]phenoxazine fluorophores” (OREGON HEALTH & SCIENCE UNIVERSITY, priority 2018, dated 2024)
